# Patent publication US10925876B2, “Methods for using triazolo-pyrazinyl soluble guanylate cyclase activators in fibrotic disorders” (Merck Sharp & Dohme Corp., priority 2016, dated 2021)
# Tests used:
# sGC α1/β1 heterodimer = target: T1, sGC α1/β1 heterodimer (Homo sapiens, UniProt Q02108+Q02153); assay: Cell-Based sGC Functional Assay (CASA Assay), cGMP generation in CHO-K1/sGC cells;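 further: reference Compound A is a published heme-dependent sGC activator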; conditions: maximum cGMP production of Compound A set to 100% activation, read-out: % Act. (percent activation relative to Compound A)
# T1 construct: expressed in transfected cells
# T1 sequence (Q02108 1-690): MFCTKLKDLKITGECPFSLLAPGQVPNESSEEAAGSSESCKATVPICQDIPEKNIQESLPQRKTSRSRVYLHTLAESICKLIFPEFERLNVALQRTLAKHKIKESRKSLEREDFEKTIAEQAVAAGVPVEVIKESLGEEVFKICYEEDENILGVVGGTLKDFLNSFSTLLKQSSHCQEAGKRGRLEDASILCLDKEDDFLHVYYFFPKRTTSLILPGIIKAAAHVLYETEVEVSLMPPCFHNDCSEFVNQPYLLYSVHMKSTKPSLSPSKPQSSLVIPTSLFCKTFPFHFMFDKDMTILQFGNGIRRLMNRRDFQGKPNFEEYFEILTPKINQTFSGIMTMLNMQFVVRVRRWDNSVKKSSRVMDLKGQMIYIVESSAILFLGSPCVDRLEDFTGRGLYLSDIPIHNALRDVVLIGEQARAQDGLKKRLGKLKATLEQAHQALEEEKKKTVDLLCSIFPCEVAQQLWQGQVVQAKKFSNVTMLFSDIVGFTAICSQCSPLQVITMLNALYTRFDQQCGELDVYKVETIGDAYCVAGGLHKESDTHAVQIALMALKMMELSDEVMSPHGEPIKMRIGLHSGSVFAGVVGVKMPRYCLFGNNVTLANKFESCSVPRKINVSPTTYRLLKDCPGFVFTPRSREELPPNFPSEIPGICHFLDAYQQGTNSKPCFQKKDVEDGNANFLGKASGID
# T1 sequence (Q02153 1-619): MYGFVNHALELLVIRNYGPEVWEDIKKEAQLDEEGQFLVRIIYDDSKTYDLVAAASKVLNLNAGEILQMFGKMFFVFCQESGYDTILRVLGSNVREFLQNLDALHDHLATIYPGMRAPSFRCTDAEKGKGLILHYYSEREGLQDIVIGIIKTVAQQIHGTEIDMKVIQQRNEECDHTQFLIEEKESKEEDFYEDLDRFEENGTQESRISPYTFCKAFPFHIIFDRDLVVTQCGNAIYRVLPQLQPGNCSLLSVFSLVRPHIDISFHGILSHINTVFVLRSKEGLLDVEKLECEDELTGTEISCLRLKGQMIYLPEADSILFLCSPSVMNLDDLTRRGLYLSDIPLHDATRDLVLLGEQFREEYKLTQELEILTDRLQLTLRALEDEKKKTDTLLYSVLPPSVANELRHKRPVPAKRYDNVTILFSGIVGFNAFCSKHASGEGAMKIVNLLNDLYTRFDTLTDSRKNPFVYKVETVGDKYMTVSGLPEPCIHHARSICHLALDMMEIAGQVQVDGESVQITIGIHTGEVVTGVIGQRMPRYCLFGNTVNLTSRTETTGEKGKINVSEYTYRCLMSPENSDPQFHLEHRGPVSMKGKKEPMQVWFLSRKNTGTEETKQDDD
# In short: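 Intracellular cGMP quantified by HTRF competition after 1 h, 37 °C compound exposure, with or without 1 μM DETA-NO, in stable CHO-K1/sGC α1/β1 cells (4×10^5/mL; buffer with 0.5 mM IBMX, 5 mM MgCl2, 10 mM HEPES, 0.05% BSA; 2.5% DMSO). Activation normalized to reference Compound A maximum; 4P fit.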
# [1] = tested on: Spontaneously hypertensive rats (SHR); assay: Acute Efficacy in Spontaneously Hypertensive Rats (SHR), telemetry blood pressure; assay type: in vivo, rat; conditions: single oral gavage
# In short: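 Male SHR fitted with aortic telemetry transmitters and recovered 14 days; conscious blood pressure sampled 30 s every 10 min. Single oral gavage dose (vehicle 10% transcutol/20% Cremophor/70% water); hourly SBP change versus prior-day vehicle baseline, reported as maximum peak decrease.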
Structure (SMILES),Emax (sGC α1/β1 heterodimer),"Maximum peak decrease of systolic blood pressure (SBP) in SHR, Cat. ([1]; P.O. 0.3 mpk)","Maximum peak decrease of systolic blood pressure (SBP) in SHR, Cat. ([1]; P.O. 1 mpk)","Maximum peak decrease of systolic blood pressure (SBP) in SHR, Cat. ([1]; P.O. 3 mpk)"
"CCCCc1nc(-c2nc(N)c3c(n2)NC(=O)C3(c2ccc(F)c(F)c2)C2CC2)cn2ncnc12 (stereo not shown) [Example 65A, 4-amino-2-(8-butyl-[1,2,4]triazolo[1,5-a]pyrazin-6-yl)-5-cyclopropyl-5-(3,4-difluorophenyl)-5H-pyrrolo[2,3-d]pyrimidin-6(7H)-one]",104%,C (Category C=SBP in SHRs >40 mmHg),,
"COc1ccc(C2(C3CC3)C(=O)Nc3nc(-c4cn5ncnc5c(CCCC(F)(F)F)n4)nc(N)c32)nc1 (stereo not shown) [Example 39A, 4-amino-5-cyclopropyl-5-(5-methoxypyridin-2-yl)-2-(8-(4,4,4-trifluorobutyl)-[1,2,4]triazolo[1,5-a]pyrazin-6-yl)-5H-pyrrolo[2,3-d]pyrimidin-6(7H)-one]",96%,B (Category B=SBP in SHRs 20-40 mmHg),,
"CCCCc1nc(-c2nc(O)c3c(n2)NC(=O)[C@@]3(C)c2ccc(F)cc2)cn2ncnc12 [Example 154A, (S)-2-(8-butyl-[1,2,4]triazolo[1,5-a]pyrazin-6-yl)-5-(4-fluorophenyl)-4-hydroxy-5-methyl-5,7-dihydro-6H-pyrrolo[2,3-d]pyrimidin-6-one]",100%,B (Category B=SBP in SHRs 20-40 mmHg),,
"CC1(c2nnc(C3CC3)o2)C(=O)Nc2nc(-c3cn4ncnc4c(CCC(F)(F)C(F)(F)F)n3)nc(N)c21 (stereo not shown) [Example 98B, 4-amino-5-(5-cyclopropyl-1,3,4-oxadiazol-2-yl)-5-methyl-2-(8-(3,3,4,4,4-pentafluorobutyl)-[1,2,4]triazolo[1,5-a]pyrazin-6-yl)-5H-pyrrolo[2,3-d]pyrimidin-6(7H)-one]",164%,,B (Category B=SBP in SHRs 20-40 mmHg),
"CCCc1nc(-c2nc(O)c3c(n2)NC(=O)[C@@]3(C)c2ccc(F)cc2)cn2ncnc12 [Example 165A, (S)-5-(4-fluorophenyl)-4-hydroxy-5-methyl-2-(8-propyl-[1,2,4]triazolo[1,5-a]pyrazin-6-yl)-5,7-dihydro-6H-pyrrolo[2,3-d]pyrimidin-6-one]",114%,,,B (Category B=SBP in SHRs 20-40 mmHg)
"CC1(c2cncc(F)c2)C(=O)Nc2nc(-c3cn4ncnc4c(CCC(F)(F)C(F)(F)F)n3)nc(N)c21 (stereo not shown) [Example 9A, 4-amino-5-(5-fluoropyridin-3-yl)-5-methyl-2-(8-(3,3,4,4,4-pentafluorobutyl)-[1,2,4]triazolo[1,5-a]pyrazin-6-yl)-5H-pyrrolo[2,3-d]pyrimidin-6(7H)-one]",119%,,B (Category B=SBP in SHRs 20-40 mmHg),
"Nc1nc(-c2cn3ncnc3c(CCCC(F)(F)F)n2)nc2c1C(c1nnc(C(F)(F)F)o1)(C1CC1)C(=O)N2 (stereo not shown) [Example 106A, 4-amino-5-cyclopropyl-2-(8-(4,4,4-trifluorobutyl)-[1,2,4]triazolo[1,5-a]pyrazin-6-yl)-5-(5-(trifluoromethyl)-1,3,4-oxadiazol-2-yl)-5H-pyrrolo[2,3-d]pyrimidin-6(7H)-one]",95%,C (Category C=SBP in SHRs >40 mmHg),,
"CC1(c2ccccn2)C(=O)Nc2nc(-c3cn4ncnc4c(CCCC(F)(F)F)n3)nc(N)c21 (stereo not shown) [Example 36B, 4-amino-5-methyl-5-(pyridin-2-yl)-2-(8-(4,4,4-trifluorobutyl)-[1,2,4]triazolo[1,5-a]pyrazin-6-yl)-5H-pyrrolo[2,3-d]pyrimidin-6(7H)-one]",82%,,B (Category B=SBP in SHRs 20-40 mmHg),
"CCCCc1nc(-c2nc(N)c3c(n2)NC(=O)C3(c2nnc(C(F)(F)F)o2)C2CC2)cn2ncnc12 (stereo not shown) [Example 105A, 4-amino-2-(8-butyl-[1,2,4]triazolo[1,5-a]pyrazin-6-yl)-5-cyclopropyl-5-(5-(trifluoromethyl)-1,3,4-oxadiazol-2-yl)-5H-pyrrolo[2,3-d]pyrimidin-6(7H)-one]",176%,B (Category B=SBP in SHRs 20-40 mmHg),,
"CC1(c2ccc(Cl)cc2)C(=O)Nc2nc(-c3cn4ncnc4c(CCC(F)(F)F)n3)nc(N)c21 (stereo not shown) [Example 76A, 4-amino-5-(4-chlorophenyl)-5-methyl-2-(8-(3,3,3-trifluoropropyl)-[1,2,4]triazolo[1,5-a]pyrazin-6-yl)-5H-pyrrolo[2,3-d]pyrimidin-6(7H)-one]",120%,A (Category A=SBP in SHRs <20 mmHg),,
"CC1(c2ccc(F)cn2)C(=O)Nc2nc(-c3cn4ncnc4c(CCC(F)(F)C(F)(F)F)n3)nc(N)c21 (stereo not shown) [Example 4B, 4-amino-5-(5-fluoropyridin-2-yl)-5-methyl-2-(8-(3,3,4,4,4-pentafluorobutyl)-[1,2,4]triazolo[1,5-a]pyrazin-6-yl)-5H-pyrrolo[2,3-d]pyrimidin-6(7H)-one]",157%,C (Category C=SBP in SHRs >40 mmHg),,
"CC(C)n1cc(C2(C)C(=O)Nc3nc(-c4cn5ncnc5c(CCC(F)(F)C(F)(F)F)n4)nc(N)c32)nn1 (stereo not shown) [Example 20A, 4-amino-5-(1-isopropyl-1H-1,2,3-triazol-4-yl)-5-methyl-2-(8-(3,3,4,4,4-pentafluorobutyl)-[1,2,4]triazolo[1,5-a]pyrazin-6-yl)-5H-pyrrolo[2,3-d]pyrimidin-6(7H)-one]",131%,,C (Category C=SBP in SHRs >40 mmHg),
"Nc1nc(-c2cn3ncnc3c(CCCC(F)(F)F)n2)nc2c1C(c1ncc(Cl)cn1)(C1CC1)C(=O)N2 (stereo not shown) [Example 41A, 4-amino-5-(5-chloropyrimidin-2-yl)-5-cyclopropyl-2-(8-(4,4,4-trifluorobutyl)-[1,2,4]triazolo[1,5-a]pyrazin-6-yl)-5H-pyrrolo[2,3-d]pyrimidin-6(7H)-one]",151%,B (Category B=SBP in SHRs 20-40 mmHg),,
"Nc1nc(-c2cn3ncnc3c(CCCC(F)(F)F)n2)nc2c1C(c1ccccn1)(C1CC1)C(=O)N2 (stereo not shown) [Example 115A, 4-amino-5-cyclopropyl-5-(pyridin-2-yl)-2-(8-(4,4,4-trifluorobutyl)-[1,2,4]triazolo[1,5-a]pyrazin-6-yl)-5H-pyrrolo[2,3-d]pyrimidin-6(7H)-one]",118%,,B (Category B=SBP in SHRs 20-40 mmHg),
"CC1(c2ccc(C(F)(F)F)cc2)C(=O)Nc2nc(-c3cn4ncnc4c(CCC(F)(F)F)n3)nc(N)c21 (stereo not shown) [Example 77B, 4-amino-5-methyl-5-(4-(trifluoromethyl)phenyl)-2-(8-(3,3,3-trifluoropropyl)-[1,2,4]triazolo[1,5-a]pyrazin-6-yl)-5H-pyrrolo[2,3-d]pyrimidin-6(7H)-one]",112%,,A (Category A=SBP in SHRs <20 mmHg),
"CC1(c2ccc(C(F)(F)F)cn2)C(=O)Nc2nc(-c3cn4ncnc4c(CCC(F)(F)F)n3)nc(N)c21 (stereo not shown) [Example 78B, 4-amino-5-methyl-5-(5-(trifluoromethyl)pyridin-2-yl)-2-(8-(3,3,3-trifluoropropyl)-[1,2,4]triazolo[1,5-a]pyrazin-6-yl)-5H-pyrrolo[2,3-d]pyrimidin-6(7H)-one]",83%,,,B (Category B=SBP in SHRs 20-40 mmHg)
"Nc1nc(-c2cn3ncnc3c(CCCC(F)(F)F)n2)nc2c1C(c1ccc(O)cn1)(C1CC1)C(=O)N2 (stereo not shown) [Example 112A, 4-amino-5-cyclopropyl-5-(5-hydroxypyridin-2-yl)-2-(8-(4,4,4-trifluorobutyl)-[1,2,4]triazolo[1,5-a]pyrazin-6-yl)-5H-pyrrolo[2,3-d]pyrimidin-6(7H)-one]",91%,,,A (Category A=SBP in SHRs <20 mmHg)
